The text below walks through data of US11401274B2, “[1,2,4]Triazolo derivatives as PDE1 inhibitors for the treatment of diabetes” (Eli Lilly and Company, priority 2017, dated 2022).

What all share (format): biochemical
One assay concerns the target human PDE4D (Homo sapiens (Human), UniProt Q08499). Put plainly: PDE enzyme assay using [3H]cAMP as substrate, PDE4D. The following applies: [3H]cAMP 47 nM; enzyme 0.021 nM; read-out: PDE 4D IC50 (μm) ± SD (n = number of runs). The source says:
(§1) The nucleotide sequences encoding full-length human PDE1A (NP_001003683.1) and PDE1C (NP_005011.1) are inserted into pFastBac1 (Invitrogen) vector with an N-terminal HIS tag. The nucleotide sequences encoding full-length human PDE4D (NP_006194.2) and catalytic domain (residue 641-1141) of PDE3A (NP_000912.3) are inserted into pFastBac1 (Invitrogen) vector with a C-terminal HIS tag. The nucleotide sequences encoding full-length human PDE6A (NP_000431.2) and PDE6B (AAH00249.1) are inserted into pFastBacDual (Invitrogen) vector with an N-terminal HIS tag and N-terminal Flag tag, respectively, for production of PDE6A/6B dimer. Baculovirus generation and protein expression in Sf9 cells are carried out according to the protocol of Bac-to-Bac Baculovirus Expression system (Invitrogen). The nucleotide sequence encoding full-length human PDE1B (NP_000915.1) is inserted into pIEX4 (Novagen) with a C-terminal HIS tag, and both protein productions in Sf9 cells are carried out according to the vendor's protocol (Novagen). The His tagged PDE proteins are purified using Ni-NTA agarose (Qiagen) followed by size exclusion chromatography on a SUPERDEX© 200 column (GE Healthcare) in storage buffer (20 mM Tris-HCl, pH7.5, 150 mM NaCl, 10% Glycerol). The Flag tagged PDE proteins including PDE6A/6B are purified using anti-Flag M2-agarose (Sigma), after purification through NiNTA column chromatography and eluted in storage buffer (50 mM Tris-HCl, pH7.5, 150 mM NaCl, 10% Glycerol, 0.1 mg/ml Flag peptide). All purified proteins are stored at −80° C. in small aliquots.
(§2) All 3′, 5′ cyclic nucleotide phosphodiesterase (PDE) enzyme activities are measured with a radiometric enzyme assay based on SPA detection system (scintillation proximity assay). Compounds to be tested are diluted in pure dimethyl sulfoxide (DMSO) using ten point concentration response curves. Maximal compound concentration in the reaction mixture is either 10 or 100 μM. Compounds at the appropriate concentration are pre-incubated with either of the PDE enzymes for 30 minutes before the reaction is started by the addition of substrate. Reactions are allowed to proceed for 60 minutes at room temperature. Next, reactions are stopped by addition of SPA beads. Samples are read 12 hours later in a MICROBETA™ TRILUX© Counter. “IC50” refers to the concentration of the compound that produces 50% of the maximal inhibitory response possible for that compound. IC50 values are calculated by plotting the normalized data vs. log [compound] and fitting the data using a four parameter logistic equation.
(§3) The following phosphodiesterase activities are measured using [3H]cAMP as reaction substrate: human PDE3A (catalytic domain) and human PDE4D. Both enzymes are cloned and purified following standard procedures. The assay buffer is prepared to give a final concentration in the assay of 50 mM Tris-HCl, 8.3 mM MgCl2, 1.7 mM ethylenediarninetetraacetic acid (EDTA) and 0.1% Bovine serum albumin at pH 7.5. Final enzyme concentrations are 0.008 and 0.021 nM for PDE3A and PDE4D, respectively. Reactions are started by addition of the substrate, [3H]cAMP, to give a final concentration of 47 nM.

Assay [1] deals with human PDE3A (catalytic domain) (Homo sapiens (Human), UniProt Q14432). As to the kind of experiment: PDE enzyme assay using [3H]cAMP as substrate, PDE3A. The following applies: [3H]cAMP 47 nM, enzyme 0.008 nM, read-out: PDE 3A IC50 (μm) ± SD (n = number of runs).
human PDE3A (catalytic domain), sequence (Q14432 641-1141): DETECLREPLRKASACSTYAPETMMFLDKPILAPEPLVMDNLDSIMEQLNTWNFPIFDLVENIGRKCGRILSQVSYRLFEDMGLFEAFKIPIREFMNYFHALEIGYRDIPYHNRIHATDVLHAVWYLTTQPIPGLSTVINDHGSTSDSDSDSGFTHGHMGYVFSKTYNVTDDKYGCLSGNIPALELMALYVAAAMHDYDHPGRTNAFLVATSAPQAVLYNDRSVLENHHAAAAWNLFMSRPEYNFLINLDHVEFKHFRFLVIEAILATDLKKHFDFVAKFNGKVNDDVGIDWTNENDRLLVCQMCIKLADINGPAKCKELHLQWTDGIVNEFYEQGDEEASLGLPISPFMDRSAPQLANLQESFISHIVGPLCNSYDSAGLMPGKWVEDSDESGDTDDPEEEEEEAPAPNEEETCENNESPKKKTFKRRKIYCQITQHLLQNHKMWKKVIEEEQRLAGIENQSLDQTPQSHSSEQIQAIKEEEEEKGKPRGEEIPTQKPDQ
Source text: as §1, §2, §3

The next assay addresses human PDE1A (Homo sapiens (Human), UniProt P54750). As to the kind of experiment: Ca2+ calmodulin dependent PDE enzyme assay (SPA, [3H]cAMP), PDE1A. The following applies: [3H]cAMP 47 nM; enzyme 0.25 nM; read-out: PDE 1A IC50 (nM) ± SD (n = number of runs).
Source text: as §1, §2
(§4) PDE1B, PDE1A, and PDE1C are cloned and purified following standard protein generation procedures. The assay buffer is prepared to give a final concentration in the assay of 50 mM Tris-HCl, 50 mM MgC2, 4 mM CaCl2, 0.1% Bovine serum albumin and 6 U/ml Calmodulin in water, at pH 7.5. The final enzyme concentration is 0.25, 0.074 and 0.0012 nM, for PDE1A, PDE1B and PDE1C respectively. The reactions are started by addition of the substrate, [^3H]cAMP, to give a final concentration of 47 nM.

The target of another assay is human PDE1B (Homo sapiens (Human), UniProt Q01064). Put plainly: Ca2+ calmodulin dependent PDE enzyme assay (SPA, [3H]cAMP), PDE1B. The following applies: [3H]cAMP 47 nM; enzyme 0.074 nM; read-out: PDE 1B IC50 (nM) ± SD (n = number of runs).
Source text: as §1, §2, §4

The next assay deals with human PDE1C (Homo sapiens (Human), UniProt Q14123). Put plainly: Ca2+ calmodulin dependent PDE enzyme assay (SPA, [3H]cAMP), PDE1C. The following applies: [3H]cAMP 47 nM; enzyme 0.0012 nM; read-out: PDE 1C IC50 (nM) ± SD (n = number of runs).
Source text: as §1, §2, §4

In a further assay the target is human PDE6A/6B (Homo sapiens (Human), UniProt P16499+P35913). Put plainly: PDE enzyme assay using [3H]cGMP as substrate, PDE6A/6B. The following applies: [3H]cGMP 80 nM; enzyme 5 nM; read-out: PDE 6AB IC50 (μM) ± SD (n = number of runs).
human PDE6A/6B, sequence (P16499 whole entry): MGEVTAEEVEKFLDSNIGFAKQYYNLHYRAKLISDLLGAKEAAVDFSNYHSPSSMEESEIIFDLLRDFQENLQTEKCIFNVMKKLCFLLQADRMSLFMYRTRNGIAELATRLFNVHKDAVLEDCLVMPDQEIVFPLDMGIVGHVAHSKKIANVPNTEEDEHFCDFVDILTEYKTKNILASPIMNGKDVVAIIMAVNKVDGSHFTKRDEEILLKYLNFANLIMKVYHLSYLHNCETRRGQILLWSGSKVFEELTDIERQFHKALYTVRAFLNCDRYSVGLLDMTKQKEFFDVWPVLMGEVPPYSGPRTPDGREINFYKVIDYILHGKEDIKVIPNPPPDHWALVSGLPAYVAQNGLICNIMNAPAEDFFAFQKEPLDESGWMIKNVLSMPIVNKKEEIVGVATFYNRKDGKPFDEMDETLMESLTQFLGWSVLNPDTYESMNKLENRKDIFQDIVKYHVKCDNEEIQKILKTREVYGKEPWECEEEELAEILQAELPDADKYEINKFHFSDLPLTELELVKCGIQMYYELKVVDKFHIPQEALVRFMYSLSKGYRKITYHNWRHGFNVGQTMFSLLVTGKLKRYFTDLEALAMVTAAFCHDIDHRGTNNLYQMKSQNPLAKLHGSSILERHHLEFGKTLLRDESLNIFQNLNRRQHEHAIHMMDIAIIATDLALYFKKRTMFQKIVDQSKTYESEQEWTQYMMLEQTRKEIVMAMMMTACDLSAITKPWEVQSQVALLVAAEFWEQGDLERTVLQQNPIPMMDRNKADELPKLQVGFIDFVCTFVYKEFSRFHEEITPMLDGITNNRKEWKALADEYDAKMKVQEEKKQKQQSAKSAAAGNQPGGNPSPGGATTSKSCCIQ
human PDE6A/6B, sequence (P35913 other isoform, or with tags, fused parts or gaps): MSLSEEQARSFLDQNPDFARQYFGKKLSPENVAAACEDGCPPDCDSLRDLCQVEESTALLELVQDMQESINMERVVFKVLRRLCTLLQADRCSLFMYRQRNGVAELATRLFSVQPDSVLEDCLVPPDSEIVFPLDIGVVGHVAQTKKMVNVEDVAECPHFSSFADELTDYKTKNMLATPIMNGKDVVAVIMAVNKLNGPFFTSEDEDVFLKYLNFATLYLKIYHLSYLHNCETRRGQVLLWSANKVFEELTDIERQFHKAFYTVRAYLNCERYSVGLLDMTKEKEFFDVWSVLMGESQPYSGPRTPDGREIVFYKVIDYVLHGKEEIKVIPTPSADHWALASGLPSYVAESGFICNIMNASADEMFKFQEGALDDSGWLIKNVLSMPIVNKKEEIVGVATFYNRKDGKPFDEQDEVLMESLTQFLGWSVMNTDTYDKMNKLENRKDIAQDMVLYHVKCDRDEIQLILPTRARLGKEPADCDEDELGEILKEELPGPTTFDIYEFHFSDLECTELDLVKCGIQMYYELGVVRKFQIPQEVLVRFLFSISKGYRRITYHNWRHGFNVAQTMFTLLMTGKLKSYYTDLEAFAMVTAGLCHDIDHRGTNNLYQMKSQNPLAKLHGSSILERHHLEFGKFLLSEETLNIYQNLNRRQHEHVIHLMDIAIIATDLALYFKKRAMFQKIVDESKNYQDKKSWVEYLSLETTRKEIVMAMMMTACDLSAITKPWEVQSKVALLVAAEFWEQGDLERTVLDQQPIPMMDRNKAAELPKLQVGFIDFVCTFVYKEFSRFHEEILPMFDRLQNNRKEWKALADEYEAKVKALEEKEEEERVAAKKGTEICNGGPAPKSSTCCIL
Source text: as §1, §2
The following phosphodiesterase activities are measured using [3H]cGMP as reaction substrate: human PDE6A/6B. The catalytic active form of human PDE6 is a dimer composed of a α (human PDE6A) and β subunit (human PDE6B). The dimer of human PDE6A/6B is produced by the expression and purification strategy, using two purification steps, i.e., NiNTA and anti-FLAG Sepharose chromatography. The assay buffer is prepared to give a final concentration in the assay of 50 mM Tris-HCl, 8.3 mM MgC2, 1.7 mM EDTA and 0.1% Bovine serum albumin at pH 7.5. The final enzyme concentration is 5 nM. The reactions are started by addition of the substrate, [3H]cGMP, to give a final concentration of 80 nM.

human PDE4D, sequence (Q08499 other isoform, or with tags, fused parts or gaps): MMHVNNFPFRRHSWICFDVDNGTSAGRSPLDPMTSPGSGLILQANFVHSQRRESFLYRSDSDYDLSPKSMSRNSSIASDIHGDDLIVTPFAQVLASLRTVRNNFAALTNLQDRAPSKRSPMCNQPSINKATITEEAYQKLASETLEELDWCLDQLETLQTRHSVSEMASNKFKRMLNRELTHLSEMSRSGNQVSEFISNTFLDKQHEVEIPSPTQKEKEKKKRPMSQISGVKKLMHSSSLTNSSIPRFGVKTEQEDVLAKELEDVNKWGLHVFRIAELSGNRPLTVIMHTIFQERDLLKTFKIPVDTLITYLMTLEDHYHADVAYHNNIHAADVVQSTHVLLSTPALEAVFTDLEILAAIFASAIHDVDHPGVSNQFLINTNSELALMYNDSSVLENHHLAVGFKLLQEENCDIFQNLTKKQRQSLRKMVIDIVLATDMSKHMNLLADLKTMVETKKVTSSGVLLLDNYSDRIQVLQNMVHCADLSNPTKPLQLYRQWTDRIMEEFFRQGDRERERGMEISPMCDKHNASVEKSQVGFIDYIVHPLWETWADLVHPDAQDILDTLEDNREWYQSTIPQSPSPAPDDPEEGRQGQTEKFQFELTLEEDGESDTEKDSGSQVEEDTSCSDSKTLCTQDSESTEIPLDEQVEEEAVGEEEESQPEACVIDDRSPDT

Broadly, the IC50 is the concentration that inhibits the measured activity by half. Turning to `CCCn1c2c(n3c(C4(C5CC5)CC4)nnc3c1=O)CCCC2` [Example 1, 1-([1,1′-bi(cyclopropan)]-1-yl)-5-propyl-6,7,8,9-tetrahydro-[1,2,4]triazolo[4,3-a]quinoxalin-4(5H)-one], the IC50 on human PDE4D is 12700 nM; in assay [1], more than 100000 nM; on human PDE1A it was 2.9 ± 1.9 nM; at human PDE1B, 3.1 nM; on human PDE1C, 2.6 ± 3.3 nM; on human PDE6A/6B it was more than 10 µM.

As for `CCCCn1c2c(n3c(C4(C5CC5)CC4)nnc3c1=O)CCCC2` [Example 2, 1-([1,1′-bi(cyclopropan)]-1-yl)-5-butyl-6,7,8,9-tetrahydro-[1,2,4]triazolo[4,3-a]quinoxalin-4(5H)-one], the IC50 is 13200 ± 2500 nM on human PDE4D; more than 100000 nM in assay [1]; 3 ± 2.1 nM on human PDE1A; 4.1 nM on human PDE1B; 1.4 ± 0.9 nM on human PDE1C; more than 10 µM at human PDE6A/6B.

As for `O=c1c2nnc(C3(C4CC4)CC3)n2c2c(n1CC1CC1)CCOC2` [Example 3, 1-([1,1′-bi(cyclopropan)]-1-yl)-5-(cyclopropylmethyl)-5,6,7,9-tetrahydro-4H-pyrano[4,3-e][1,2,4]triazolo[4,3-a]pyrazin-4-one], the IC50 at human PDE4D is 16400 ± 300 nM; in assay [1], more than 100000 nM; on human PDE1A, 9.8 ± 2.2 nM; on human PDE1B it was 8.7 nM; at human PDE1C, 5.2 ± 0.6 nM; on human PDE6A/6B, more than 10 µM.

Consider `CCCCn1c2c(n3c(C4(C5CC5)CC4)nnc3c1=O)COCC2` [Example 4, 1-([1,1′-bi(cyclopropan)]-1-yl)-5-butyl-5,6,7,9-tetrahydro-4H-pyrano[4,3-e][1,2,4]triazolo[4,3-a]pyrazin-4-one], for which the concentration for half-maximal inhibition (IC50) is 21800 nM on human PDE4D; more than 100000 nM in assay [1]; 6.3 ± 0.4 nM on human PDE1A; 7.8 nM on human PDE1B; 1.5 ± 0.5 nM at human PDE1C; more than 10 µM on human PDE6A/6B.

In the case of `O=c1c2nnc(C3(C4CC4)CC3)n2c2c(n1CC1CCC1)CCOC2` [Example 5, 1-([1,1′-bi(cyclopropan)]-1-yl)-5-(cyclobutylmethyl)-5,6,7,9-tetrahydro-4H-pyrano[4,3-e][1,2,4]triazolo[4,3-a]pyrazin-4-one], the IC50 on human PDE4D is 19200 nM; in assay [1] it was more than 100000 nM; on human PDE1A, 5.8 ± 2.3 nM; on human PDE1B, 4.2 nM; on human PDE1C, 1.9 ± 0.4 nM; at human PDE6A/6B it was more than 10 µM.

For `O=c1c2nnc(C3(C4CC4)CC3)n2c2c(n1CC1CC1)COCC2` [Example 6, 1-(1-cyclopropylcyclopropyl)-5-(cyclopropylmethyl)-3-oxo-7,8-dihydro-5H-pyrano-[1,2,4]triazolo[4,3-a]quinoxalin-4-one], the IC50 is 39200 ± 16500 nM on human PDE4D; more than 100000 nM in assay [1]; 8.4 ± 3.8 nM on human PDE1A; 14.9 nM on human PDE1B; 7.6 ± 1.9 nM at human PDE1C; more than 10 µM on human PDE6A/6B.

As for `CCCCn1c2c(n3c(C4(C5CC5)CC4)nnc3c1=O)CCOC2` [Example 7, 1-([1,1′-bi(cyclopropan)]-1-yl)-5-butyl-8,9-dihydro-6H-pyrano[3,4-e][1,2,4]triazolo[4,3-a]pyrazin-4(5H)-one], the IC50 on human PDE4D was more than 100000 nM; in assay [1] it was more than 100000 nM; on human PDE1A, 5.2 ± 2 nM; at human PDE1B, 12 nM; on human PDE1C, 2 ± 0.1 nM; on human PDE6A/6B, more than 10 µM.

In the case of `O=c1c2nnc(C3(C4CC4)CC3)n2c2c(n1CC1CC1)CCCCC2` [Example 8, 1-([1,1′-bi(cyclopropan)]-1-yl)-5-(cyclopropylmethyl)-5,6,7,8,9,10-hexahydro-4H-cyclohepta[e][1,2,4]triazolo[4,3-a]pyrazin-4-one], the IC50 on human PDE4D is 12100 nM; in assay [1], more than 100000 nM; at human PDE1A, 6.5 ± 2.6 nM; at human PDE1B, 6.6 nM; on human PDE1C it was 4.7 ± 1.4 nM; at human PDE6A/6B, more than 10 µM.
